In patent publication US6576247B1, “Sustained-release aromatic and method of detecting micro-organism by using the same” (Kanebo Ltd. and T. Hasegawa Co. Ltd., priority 1994, dated 2003):

How the values were obtained:
[1] = tested on: Saccharomyces cerevesiae; assay: Perfume glycoside decomposition ability test of bread yeast; assay type: cell-based; conditions: glycoside 0.5% by weight in 15% sucrose solution, yeast 7% by weight, 4° C.
Method: Saccharomyces cerevesiae which had been cultured at 30° C. for 1 hour was added, at a concentration of 7% by weight, to a 15% by weight sucrose aqueous solution each containing the glycosides prepared in Synthesis Examples 2, 4 or 5 in an amount of 0.5% by weight. This was cultured at 4° C. while shaked. After 15 minutes and 4 hours culture, the culture liquid was sampled and centrifuged to precipitate the yeast. The supernatant was then extracted with the same volume of diethyl ether as that of the supernatant. The structure of the aroma components was identified on a GC-MS. The amount of the component released was determined on a GC with a detector of FID.

[2] = tested on: Coryneform bacteria (Corynebacterium); assay: Glycoside decomposition ability test of Coryneform bacteria; assay type: cell-based; conditions: for Detected component and its amount: 2-phenylethyl alcohol: 32° C., glycoside 0.5% by weight in SCD liquid medium, GC-FID
Method: Each of the glycosides synthesized in Synthesis Examples 1 to 3 was added to a soybean casein digest liquid medium (SCD liquid medium) at an amount of 0.5% by weight based on the medium. To the liquid medium was inoculated 2% of bacterial liquid of Coryneform bacteria which had been precultured in an SCD liquid medium. This was cultured at 32° C. in a static state. The culture liquid was sampled after 2 days and 4 days culture and sterizing treatment was conducted on a conventional manner. After the sterizing treatment, aroma components were extracted with the same volume of diethyl ether as that of the culture liquid sampled. The structure of the components was identified on a GC-MS. The amount of the components released was determined on a GC with a detector of FID.

SMILES	Amount of aroma components ([1]; after 15 minutes culture) [peak area × 10^5]	Amount of aroma components ([1]; after 4 hours culture) [peak area × 10^5]	Detected component and its amount: vanillin ([2]; after 2 days culture) [peak area × 10^6]	Detected component and its amount: vanillyl alcohol ([2]; after 2 days culture) [peak area × 10^6]	Detected component and its amount: vanillin ([2]; after 4 days culture) [peak area × 10^6]	Detected component and its amount: vanillyl alcohol ([2]; after 4 days culture) [peak area × 10^6]	Detected component and its amount: 2-phenylethyl alcohol ([2]; after 2 days culture) [peak area × 10^6]	Detected component and its amount: 2-phenylethyl alcohol ([2]; after 4 days culture) [peak area × 10^6]
C=CCc1ccc(O[C@@H]2O[C@H](CO)[C@@H](O)[C@H](O)[C@H]2O)c(OC)c1 [eugenyl glucoside (β-form), Eugenyl Glucoside (β-form)]	0.5	1.3	–	–	–	–	–	–
CC(C)=CCCC(C)CCO[C@@H]1O[C@H](CO)[C@@H](O)[C@H](O)[C@H]1O (stereo partly drawn) [citronellyl glucoside (β-form), Citronellyl Glucoside (β-form)]	2.6	8.8	–	–	–	–	–	–
COc1cc(C=O)ccc1O[C@@H]1O[C@H](CO)[C@@H](O)[C@H](O)[C@H]1O [glucovanillin (β-form), Glucovanillin (β-form)]	–	–	0.01	0	1.75	0.2	–	–
OC[C@H]1O[C@H](OCCc2ccccc2)[C@H](O)[C@@H](O)[C@@H]1O [2-phenylethylglucoside (α-form), 2-Phenylethyl Glucoside (α-form)]	0.4	1.6	–	–	–	–	0.01	0.3
OC[C@H]1O[C@@H](OCCc2ccccc2)[C@H](O)[C@@H](O)[C@@H]1O [2-phenylethylglucoside (β-form), 2-Phenylethyl Glucoside (βform)]	–	–	–	–	–	–	1.1	8.0
